The source of these data is patent US9012422B2, “Method of treating acute myelogenous leukemia” (Wake Forest University Health Sciences, priority 2011, dated 2015).

As a reminder, the IC50 is the concentration at which inhibition is half-maximal.

Where two headings read alike, the source gives them in different places. A value given as a limit tells only on which side of the number the result lay.

Data set [1] concerns MLL-ENL driven murine AML cells.
Description: FIG. 4. […] (A) EdU incorporation assays. MLL-ENL driven murine AML cells were incubated with the indicated drug for 8 hours and subjected to a 5-ethynl-2′ deoxyuridine (EdU) incorporation assay. S phase cells were gated as shown. Percentages shown are for cells in S phase. (B) EdU incorporation assay as in (A). Cells were infected with either a p53 targeting shRNA or a control vector and exposed to the indicated drug for 8 hours.
Data set [2] deals with topoisomerase I cleavage complexes (Top1CC) in THP-1, Jurkat and HL60 cells (Homo sapiens, UniProt P11387). Nature of the data set: ICE bioassay / Top1 cleavage complex detection. The conditions noted are these: 100 nM, 24 or 48 hours.
Sequence of topoisomerase I cleavage complexes (Top1CC) in THP-1, Jurkat and HL60 cells (P11387 2-765 limits assumed, one chain of several): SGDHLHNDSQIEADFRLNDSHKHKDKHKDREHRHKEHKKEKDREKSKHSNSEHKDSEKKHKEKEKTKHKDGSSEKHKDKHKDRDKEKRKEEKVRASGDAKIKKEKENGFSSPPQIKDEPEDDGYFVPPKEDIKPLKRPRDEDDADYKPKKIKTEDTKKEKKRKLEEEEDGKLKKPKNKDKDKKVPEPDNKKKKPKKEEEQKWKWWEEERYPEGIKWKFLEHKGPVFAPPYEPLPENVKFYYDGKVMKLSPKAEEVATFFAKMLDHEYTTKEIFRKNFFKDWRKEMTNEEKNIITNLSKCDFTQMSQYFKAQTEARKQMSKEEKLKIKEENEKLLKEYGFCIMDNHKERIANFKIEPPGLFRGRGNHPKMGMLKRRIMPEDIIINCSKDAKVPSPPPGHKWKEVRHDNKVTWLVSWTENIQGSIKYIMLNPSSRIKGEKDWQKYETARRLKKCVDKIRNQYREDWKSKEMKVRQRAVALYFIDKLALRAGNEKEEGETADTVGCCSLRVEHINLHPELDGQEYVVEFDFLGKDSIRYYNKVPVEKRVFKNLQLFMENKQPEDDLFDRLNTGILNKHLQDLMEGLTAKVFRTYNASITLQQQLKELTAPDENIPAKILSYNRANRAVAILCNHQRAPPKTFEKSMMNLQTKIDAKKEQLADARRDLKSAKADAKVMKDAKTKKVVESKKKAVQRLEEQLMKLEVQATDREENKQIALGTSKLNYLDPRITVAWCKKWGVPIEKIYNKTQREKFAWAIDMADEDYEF
Description: (B) ICE bioassay for Top1 cleavage complexes. […] Cells were lysed and subjected to ICE bioassay (see methods), and DNA-containing fractions were blotted for Topo I. (C) Results of TS and Top1 Western blots.
Cells were plated at 1.5×10^6 cells in 100 mm^2 plates and grown in RPMI 1640 medium with 20% FBS. […] Cells were lysed in 2 ml of 1% sarkosyl in 1×TE pH 7.5 and frozen at −20° C. Samples were homogenized approximately 25 times. Addition of 1 ml of sarkosyl was used to wash the homogenizer. CsCl gradients were made as in^9. The samples were overlaid and ultracentrifuged in a SW41T rotor. Centrifugation was at 36K for 20-22 hours at 20° C. 500 ml fractions were collected. Fractions 6 through 11 were used for analysis. 200 ul of each fraction and an equal volume of 25 mM NaPO4 buffer (pH 6.5) were loaded onto a nitrocellulose membrane using a Schleicher and Schuell Minifold II slot blotter. The membrane was blocked with 5% milk in TBST. Primary antibody was added at 1:500 dilution, overnight at 4° C. Secondary antibody was used in the same manner. ECL Lightning Plus (Perkin Elmer) was used for detection of the TOP1 cleavage complex.
Data set [3] concerns THP-1 and HL60 cells. The conditions noted are these: 48 hours.
Description: (B) Flow cytometry of Annexin V assay. THP-1 or HL60 cells were treated with the indicated drug for 48 hours and then labeled with Annexin V and propidium iodide (PI) and analyzed by flow cytometry.
(§8) Cells were seeded in 6-well plates at 25,000 cells/ml in 3 mls, grown for 2 days and treated with the indicated drug for 16, 24, 36, or 48 hours. After centrifugation and washing in cold PBS cells were stained with PI (Sigma Aldrich, St. Louis, Mo.) and APC-conjugated Annexin V in a binding buffer (0.1 M Hepes (pH 7.4), 1.4 M NaCl, and 25 mM CaCl2 solution) (BD Pharmingen, San Jose, Calif.) according to the manufacturer's protocol. Flow cytometric analysis was conducted on a BD FACS Cantoll cytometer with the BD FACSDiva software (BD Biosciences, San Jose, Calif.).
The test system of data set [4] is K562 cells. As to the kind of experiment: Cell Titer-Glo viability (cytotoxicity) assay, K562. Type of data set: cell-based, human. Particulars: 72 hours exposure. An excerpt: (§1) We chose to use doxorubicin as the anthracycline as it is the best tolerated anthracycline in C57/Bl6 mice^11 and would allow for comparisons between in vivo and in vitro studies.
In data set [5] the test system is MLL-ENL- and FLT3 ITD-expressing cell line with p53-targeting shRNA. Nature of the data set: Cytotoxicity assay of murine AML cells with p53 knockdown. The conditions noted are these: p53 shRNA vs control vector, 72 hours.
Description: (A) Cytotoxicity assays of murine AML cells that knockdown p53. Cells were exposed to the indicated drugs for 72 hours and then assessed for viability. Viability is shown as percentage of control; error bars represent the standard error.
Viability assays were done using the Cell Titer-Glo assay (Promega, Madison, Wis.) according to the manufacturer's protocol. All murine cells were derived from fetal liver cells infected with MLL-ENL alone or with a mutation of glycine at amino acid 12 to aspartate of NRAS (NRAS^G12D) or FLT3-ITD expressing vectors^10. Murine cells were maintained in stem cell media (40% DMEM, 40% IMDM, 20% FBS, supplemented with murine SCF to 10 ng/ml, murine IL6 to 2 ng/ml, and murine IL3 to 0.4 ng/ml).
Data set [6] has as its system MR2 cells (MLL-ENL + NRasG12D). Particulars: read-out: IC50 MR2.
Description: (§9) Cells were grown at 37° C. with 5% CO2. Viability assays were done using the Cell Titer-Glo assay (Promega, Madison, Wis.) according to the manufacturer's protocol. All murine cells were derived from fetal liver cells infected with MLL-ENL alone or with a mutation of glycine at amino acid 12 to aspartate of NRAS (NRAS^G12D) or FLT3-ITD expressing vectors^10. Murine cells were maintained in stem cell media (40% DMEM, 40% IMDM, 20% FBS, supplemented with murine SCF to 10 ng/ml, murine IL6 to 2 ng/ml, and murine IL3 to 0.4 ng/ml).
The subject of data set [7] is KG1a cells. Nature of the data set: Cell Titer-Glo viability (cytotoxicity) assay, KG1a. The conditions noted are these: 72 hours exposure. Type of data set: cell-based, human.
Description: as §1
(In ATP-based viability assays light output follows the ATP content of the culture.)

In data set [8] the test system is MFL2 cells (MLL-ENL + Flt3 ITD). Particulars: read-out: IC50 MFL2.
Description: as §9
The test system of data set [9] is OCI-AML3 cells. Nature of the data set: Cell Titer-Glo viability (cytotoxicity) assay, OCI-AML3. Type of data set: cell-based, human. Particulars: 72 hours exposure.
Description: as §1

Data set [10] deals with murine AML cells expressing the p53 shRNA. The conditions noted are these: 48 hours.
Description: (B) Flow cytometry of Annexin V assay. Cells expressing the p53 short hairpin RNA (shRNA) were exposed to the indicated drug for 48 hours and then labeled with Annexin V and propidium iodide (PI).
as §8
The subject of data set [11] is HL60 cells. As to the kind of experiment: Cell Titer-Glo viability (cytotoxicity) assay, HL60. Type of data set: cell-based, human. The conditions noted are these: 72 hours exposure.
Description: as §1

Data set [12] relates to M1 cells (MLL-ENL alone). The conditions noted are these: read-out: IC50 M1.
Description: as §9
The test system of data set [13] is THP-1 cells. Nature of the data set: Cell Titer-Glo viability (cytotoxicity) assay, THP-1. Particulars: 72 hours exposure. It counts as cell-based, human.
Description: as §1

The test system of data set [14] is Jurkat cells. Nature of the data set: Cell Titer-Glo viability (cytotoxicity) assay, Jurkat. The conditions noted are these: 72 hours exposure. It counts as cell-based, human.
Description: as §1

The subject of data set [15] is human LSCs (K562 and HL60 cells, three primary patient samples). The conditions noted are these: 24 hours drug, colonies read on or after day 7.
The subject of data set [16] is MFL2 cell line (MLL-ENL and FLT3 ITD) leukemia in C57/Bl6 mice. Particulars: for survival compared to controls: 5-FU 121 mg/kg. From the text:
FIG. 6. […] A) Schema of treatment trial. C57/Bl6 mice were sublethally irradiated to 4.5 Gy and injected with an MLL-ENL and Fms-like tyrosine kinase 3 internal tandem duplication (FLT3-ITD) syngeneic leukemia. […] (B) Bioluminescent image of mice on day 6 following treatment. (C) Kaplan-Meier curves for animals treated with Fd, 5-FU or AD as above.
(§2) The Wake Forest University Institutional Animal Care and Use Committee approved all mouse experiments. Luciferase-tagged leukemia cells were transplanted into 6- to 8-wk-old sublethally irradiated recipient mice (4.5 Gy) by tail-vein injection of 1×10^6 viable cells. Mice were monitored by bioluminescent imaging on day 7. Imaging was performed using an IVIS100 imaging system (Caliper LifeSciences, Hopkinton, Mass.). Mice were injected with 150 mg/kg D-Luciferin (Gold Biotechnology, St. Louis, Mo.), anesthetized with isoflurane, and imaged for 2 min. Chemotherapy was initiated upon detection of clear signals. […] Control animals were injected with PBS. Repeat luciferase imaging was performed on day 6 of treatment.
(§3) Recent studies have shown that the bone marrow microenvironment can have a profound effect on chemotherapy response in AML^24. Additionally, the immune system can affect the degree of response to a given therapy in vivo^25. […] This cell line express MLL-ENL and the mutated oncogene, NRas^G12D in conjunction with a luciferase reporter. […] This cell line expresses the FLT3 receptor with an internal tandem duplication (FLT3 ITD) in place of NRas^G12D. […] (300 mg/kg), 5-FU (121 mg/kg) or Ara-C (125 mg/kg) plus doxorubicin (3.75 mg/kg) on days 1, 3, 5, and 7 (FIG. 1A).

Data set [17] deals with K562 cells. Particulars: 24 hours.
Description: (A) Immuno-fluorescence for gamma histone H2AX (γH2AX) foci. K562 cells were treated with the indicated drug for 24 hours and then assayed for the presence of γH2AX foci. Secondary antibody was conjugated with Alexa Fluor 594 and Images were captured with an Olympus IX70 inverted fluorescent microscope equipped with a Retiga 2000R digital color camera and using an LPIanFI 20×/0.40 objective. Images were analyzed with Image Pro Plus 5.1 software.
For immunofluorescence studies of phosphorylated γH2AX, cells were fixed with 4% NBF, permeabilized with PBS containing 0.2% Triton-X 100, and probed with anti-phosphoH2AX (#2577, 1:100; Cell Signalling Technologies) followed by donkey anti-rabbit Alexa Fluor 594 conjugated antibody (1:500, A-21207; Invitrogen) and visualized via fluorescence microscopy.
In data set [18] the test system is MR2 cell line (MLL-ENL and NRasG12D) leukemia in C57/Bl6 mice.
Description: FIG. 12. […] C57/Bl6 mice were sublethally irradiated to 4.5 Gy and injected with an MLL-ENL and NRAS syngeneic leukemia. […] P value was obtained by log rank test. […] P value was obtained by log rank test.
as §2, §3

Data set [19] relates to murine AML cell lines. The conditions noted are these: 24 hours. As to the method: FIG. 11. […] (A) Flow cytometry results of Annexin V assays. The indicated MLL-ENL driven leukemia cells were treated with drug for 24 hours analyzed by flow cytometry, as in FIG. 5. (B) MLL-ENL and neuroblastoma RAS viral oncogene homolog (NRAS) containing AML cells were exposed to the indicated drug for 24 hours and analyzed as in (A).

Data set [20] relates to normal murine HSCs. The conditions noted are these: mouse, in vivo. How it is done: (§4) FIG. 7. […] Mice were treated in the same manner as the in FIG. 6; sacrificed 72 hours after the last dose; and organs were harvested, fixed, paraffin-embedded, sectioned, and stained. Slides were imaged using a Nikon Eclipse 50i light microscope, magnification as indicated. Photographs of tissues were taken using the NIS Elements D3.10 camera and software system. (B) Bone marrow transplant. […] Ly5.1+C57/Bl6 recipient mice were irradiated to 8 gray and injected with donor cells. After three weeks recipients were harvested and degree of femur engraftment by donor cells was determined by staining with Ly5.2 antibody and analyzed by flow cytometry.
(§5) Normal C57/Bl6 mice were treated with identical dose, schedule and route of each drug as in the efficacy studies (i.e. Day 1, 3, 5 and 7). 72 hours after the last dose, animals were sacrificed, bilateral femoral cells harvested and organs fixed in 10% neutral buffered formalin followed by routine tissue processing and sectioning for hematoxylin and eosin staining. Slides were then reviewed by a veterinary pathologist using a Nikon Eclipse 50i light microscope. Photographs of tissues were taken using the NIS Elements D3.10 camera and software system. […] Three weeks later recipient femoral bone marrow was harvested and stained with APC-conjugated anti-Ly5.2 antibody (BD Pharmingen, San Diego, Calif.) and analyzed by flow cytometry. […]

The subject of data set [21] is MFL2 cells (MLL-ENL + Flt3 ITD). As to the kind of experiment: cells. The conditions noted are these: Mus musculus, read-out: IC50 MFL2.
Description: as §9
Data set [22] has as its system normal C57/Bl6 mice. Nature of the data set: Toxicology study, histopathology. It counts as in vivo, mouse. The conditions noted are these: dosed days 1, 3, 5, 7; sacrificed three days after last treatment. As to the method: as §4, §5
Data set [23] concerns the target T1, thymidylate synthase (Homo sapiens, UniProt P04818).
T1 construct: endogenous in cells; host or cells: HL60
Nature of the data set: TS catalytic activity in treated HL60 cells. Type of data set: cell-based. The conditions noted are these: 100 nM 5-FU.

The test system of data set [24] is MR2 cells (MLL-ENL + NRasG12D). Nature of the data set: cells. Particulars: Mus musculus, read-out: IC50 MR2.
Description: as §9
Data set [25] has as its system M1 cells (MLL-ENL alone). Nature of the data set: cells. The conditions noted are these: Mus musculus, read-out: IC50 M1.
Description: as §9
Data set [26] relates to murine AML cells expressing p210 BCR-ABL. As to the kind of experiment: Cytotoxicity assay of murine AML cells expressing p210 BCR-ABL. It counts as cell-based. The conditions noted are these: 72 hours. An excerpt: (§6) FIG. 1. […] (B) Flow cytometry of Annexin V assay.
(§7) In addition to p53 loss, several other adverse prognostic factors are expressed in the cell lines tested. K562 cells express the fusion gene BCR-ABL that has been implicated in chemotherapy resistance^17 and prognosis in AML^18. THP-1 cells express high levels of MN1^18, shown to confer an adverse prognosis^20-21.

The subject of data set [27] is murine AML cells expressing human MN1. As to the kind of experiment: Cytotoxicity assay of murine AML cells expressing MN1. It counts as cell-based. The conditions noted are these: 72 hours.
Description: as §6, §7

Setting [28] is: days 1, 3, 5 and 7, FdUMP[10] 300 mg/kg.

T1 sequence (P04818 2-313 limits assumed): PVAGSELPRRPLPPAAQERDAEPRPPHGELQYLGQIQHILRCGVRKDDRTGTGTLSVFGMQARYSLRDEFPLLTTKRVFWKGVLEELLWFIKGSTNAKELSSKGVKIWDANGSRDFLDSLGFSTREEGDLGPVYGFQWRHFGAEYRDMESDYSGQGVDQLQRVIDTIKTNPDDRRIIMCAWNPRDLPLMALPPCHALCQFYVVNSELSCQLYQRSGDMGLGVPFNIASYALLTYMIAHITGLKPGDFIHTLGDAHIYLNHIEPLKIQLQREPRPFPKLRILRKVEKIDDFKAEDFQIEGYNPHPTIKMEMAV

As for “10-mer oligonucleotide of 5-fluorodeoxyuridine [FdUMP[10]]”, in [1] (8 hours exposure), the “S-phase arrest in cells expressing a p53 targeting shRNA” value was “efficiently arrested in S-phase”. Further, the “accumulation of cells in S-phase” value in [1] (eight hours exposure) was “cells accumulated in S-phase”. The “trapped Top1 cleavage complexes” value in [2] is listed as “Top1 was detected co-migrating with genomic DNA”. Besides, the “apoptosis by Annexin V and propidium iodide staining” value in [3] (10 or 100 nM) is reported as “a majority of cells were stained positive”. In addition, the IC50 in [4] is 21.5 nM; in data set [6] it was 0.124 nM; in [7], 4.9 nM; in data set [8], 0.131 nM; in data set [9] it was 5.5 nM; in [11], 3.4 nM. In addition, the IC50 in [12] is 0.124 nM; in [13], 4.1 nM; in [14], 5.4 nM. In addition, the “change in response (viability) on loss of p53 response” value in [5] is on record as “no change observed”. Moreover, the “Annexin V binding in p53-suppressing cells” value in data set [10] is reported as “positive for Annexin V binding”. Further, the “suppression of colony formation, cell lines and primary patient samples” value in data set [15] is on record as “highly effective in suppressing colony formation”. Also, the “survival compared to Ara/Dox treated animals” value in data set [16] (Ara-C 125 mg/kg plus doxorubicin 3.75 mg/kg, days 1, 3, 5, 7) was “no difference in survival”. Besides, in data set [16] (setting [28]), the “disease burden (bioluminescent imaging)” value is recorded as “reduced disease burden”. The “survival compared to controls” value in [16] (setting [28]) was “improved survival”. Moreover, the “γH2AX foci (DNA DSBs)” value in data set [17] (10 or 100 nM) is “formation of multiple γH2AX foci”. For the same compound, the survival entry in data set [18] (300 mg/kg every other day for four doses) is “significant survival benefit”. Besides, the “disease burden (bioluminescence)” value in data set [18] (300 mg/kg on days 1 and 4) is “reduction in disease burden”. In addition, the “survival vs untreated controls” value in data set [18] (300 mg/kg on days 1 and 4) was “statistically significant survival benefit”. In data set [19], the “apoptosis induction in murine AML cell lines” value was “efficiently induced apoptosis”.

Consider `O=c1[nH]cc(F)c(=O)[nH]1` [5-FU, 5-fluorouracil], for which, in data set [20], the “engraftment of femur cells from treated donors in irradiated recipients” value is listed as “only minimal engraftment”. In data set [1] (eight hours, 5-FU at 100 times the FdUMP[10] concentration), the “accumulation of cells in S-phase” value is on record as “essentially no difference in the number of cells in S-phase from control”. In addition, the “apoptosis by Annexin V staining” value in [3] (100 nM 5-FU) is “only minimal annexin V positive cells”. Also, the concentration for half-maximal inhibition (IC50) was 7000 nM in data set [4] (Homo sapiens, K562); 292 nM in data set [21]; 5300 nM in data set [7] (Homo sapiens, KG-1a); 5000 nM in data set [11] (Homo sapiens, HL-60); 1200 nM in [13] (Homo sapiens, THP-1); 7500 nM in data set [14] (Homo sapiens, Jurkat). Moreover, the IC50 in data set [24] came to 214 nM. The “GI-tract histopathology (small and large intestine)” value in data set [22] is “severe villous blunting and fusion with crypt necrosis”. Besides, the bone marrow histopathology result in [22] was “severe pancytopenia”. Also, the TS inhibition entry in data set [23] is “did not significantly inhibit TS”. The deaths on treatment result in data set [16] (5-FU 121 mg/kg days 1, 3, 5, 7) is given as “early deaths”. Further, the “survival compared to controls” value in [16] (setting [28]) is listed as “no survival benefit over controls”. In addition, the “γH2AX foci (DNA DSBs)” value in [17] (1 μM) is reported as “did not result in the formation of γH2AX foci”.

Turning to `Nc1ccn([C@@H]2O[C@H](CO)[C@@H](O)[C@@H]2O)c(=O)n1` [Cytarabine, cytarabine], the IC50 came out at 83.7 nM in data set [4] (Homo sapiens, K562); 54.4 nM in [21]; 196 nM in data set [7] (Homo sapiens, KG-1a); 134 nM in data set [9] (Homo sapiens, OCI-AML-3); 145 nM in [11] (Homo sapiens, HL-60); 46.8 nM in [25]. The IC50 in data set [13] (Homo sapiens, THP-1) worked out at 6700 nM; in data set [14] (Homo sapiens, Jurkat), 15.5 nM; in [24], 71.8 nM.

Turning to `COc1cccc2c1C(=O)c1c(O)c3c(c(O)c1C2=O)C[C@@](O)(C(=O)CO)C[C@@H]3O[C@H]1C[C@H](N)[C@H](O)[C@H](C)O1` [Doxorubicin, doxorubicin], the “fold change of IC50 vs parental leukemia cells, p210 BCR-ABL” value in data set [26] was found to be 2.95 fold. Moreover, the IC50 in data set [4] (Homo sapiens, K562) stood at 253 nM; in data set [21] it was 24.6 nM; in data set [7] (Homo sapiens, KG-1a), 1300 nM; in [11] (Homo sapiens, HL-60), 21.7 nM; in [25], 3.7 nM; in data set [13] (Homo sapiens, THP-1), 160 nM. Besides, the IC50 in [14] (Homo sapiens, Jurkat) turned out to be 75.2 nM; in [24] it was 11.4 nM. Further, the “change in response (viability) on loss of p53 response” value in data set [5] is recorded as “resistance”. For the same compound, the “fold change of IC50 vs parental leukemia cells, MN1” value in data set [27] is given as more than 10 fold.
